The subject of this test is Plasmodium berghei. Briefly: Luciferase/luciferin-expressing antifolate-resistant parasites were used to infect a culture of HepG2 cells that were pre-incubated with compounds. Infected hepatocytes emit light due to the luciferase reaction. Assay results are presented as the percent inhibition of light emission compared to control. […]. It is filed as functional. The conditions noted are these: sporozoite; for IC90: read-out: LUCIFERASE INFECTION ASSAY - IC90.

Where [1] appears, read: read-out: LUCIFERASE INFECTION ASSAY - IC50.

A value given as a limit tells only on which side of the number the result lay.

For orientation: IC50 means the concentration needed to halve the response being measured. For orientation: IC90 means the concentration at which the effect reaches the 90% level. For `C[C@]12CCC3C(CC[C@]4(O)C[C@@H](O)CC[C@]34/C=N/O)[C@@]1(O)CC[C@@H]2C1=CC(=O)OC1` (stereo partly specified), the concentration for an effect of 90% (IC90) was 0.165 µM. Also, the IC50 (HEPG2TOX_HILL_SLOPE 2.86, HEPG2TOX_R_SQUARED 0.935, PBLUC_HILL_SLOPE 2.2, PBLUC_R_SQUARED 0.866, read-out: LUCIFERASE INFECTION ASSAY - IC50) was determined as 0.0609 µM.
Regarding `O=C(c1ccc(Sc2ccccc2)c([N+](=O)[O-])c1)N(Cc1ccc2c(c1)OCO2)c1ccc(F)cc1`, the IC90 was greater than 6.57 µM. Besides, the IC50 under setting [1] is greater than 6.57 µM.
As to `Cc1nnnn1/C(=C\c1ccccc1)C(=O)N1CCCC1c1nc2ccccc2s1` (stereo unspecified), the IC90 is greater than 10 µM. Moreover, the half-inhibitory concentration (IC50) (HEPG2TOX_HILL_SLOPE 10.1, HEPG2TOX_R_SQUARED 0.585, PBLUC_HILL_SLOPE 18.2, PBLUC_R_SQUARED 0.211, read-out: LUCIFERASE INFECTION ASSAY - IC50) came out at 9.46 µM.
As for `CCOC(=O)C(c1ccc(Cl)cc1)N1CCN(C(=O)/C=C/c2ccc(OC)c(OC)c2)CC1` (stereo unspecified), the IC90 was found to be 3.62 µM. The IC50 (PBLUC_HILL_SLOPE 18.4, PBLUC_R_SQUARED 0.744, read-out: LUCIFERASE INFECTION ASSAY - IC50) is 3.21 µM.
On to `CCOc1ccc(Oc2ccc(Cl)cc2NCC(=O)N(C)CC(=O)NC(C)C)cc1`, for which the IC90 is greater than 10 µM. The IC50 under setting [1] was greater than 10 µM.
Regarding `COc1ccc(/C(C)=N/OCC(=O)O)cc1`, the IC90 was greater than 14.8 µM. Besides, where the note is “PBLUC_HILL_SLOPE 3.66, PBLUC_R_SQUARED 0.112, read-out: LUCIFERASE INFECTION ASSAY - IC50”, the IC50 was greater than 14.8 µM.
Regarding `COc1ccc(NC(=O)c2ccc(-n3cnc4ccccc43)cc2)cc1Cl`, the IC90 is greater than 10 µM. Under setting [1], the IC50 was 8.58 µM.
`Cc1cccc2c(=O)n(CC(=O)NCCCCOc3ccc(F)cc3)cnc12`: the IC90 is greater than 10 µM. Moreover, the IC50 under setting [1] is greater than 10 µM.
For `O=C(Nc1ccc(Br)c(C(F)(F)F)c1)c1ccc(N2CCOCC2)nc1`, the IC90 is greater than 10 µM. Moreover, the IC50 (HEPG2TOX_HILL_SLOPE 0.861, HEPG2TOX_R_SQUARED 0.877, PBLUC_HILL_SLOPE 1.11, PBLUC_R_SQUARED 0.718, read-out: LUCIFERASE INFECTION ASSAY - IC50) turned out to be 1.48 µM.
For the molecule `COC(=O)C1=CC2C3C(=O)N(c4cc(Cl)cc(Cl)c4)C(=O)C3C1C1C(=O)N(c3cc(Cl)cc(Cl)c3)C(=O)C21` (stereo unspecified), the IC90 is greater than 5.55 µM. The IC50 (PBLUC_HILL_SLOPE 1.53, PBLUC_R_SQUARED 0.573, read-out: LUCIFERASE INFECTION ASSAY - IC50) is 2.18 µM.
As to `O=C(/C=c1/[nH]c(=O)/c(=C/c2ccc(-c3ccccc3F)s2)s1)c1ccncc1`, the IC90 was greater than 10 µM. Further, the IC50 (FFLUC_HILL_SLOPE 1.61, FFLUC_R_SQUARED 0.374, read-out: LUCIFERASE INFECTION ASSAY - IC50) is greater than 10 µM.
As to `CCOc1ccc(NC(=S)N/N=C2/C(=O)Nc3c(Cl)cc(Cl)cc32)cc1`, the IC90 was determined as 1.16 µM. Under “FFLUC_HILL_SLOPE 3.63, FFLUC_R_SQUARED 0.721, HEPG2TOX_HILL_SLOPE 1.01, HEPG2TOX_R_SQUARED 0.763, PBLUC_HILL_SLOPE 15.5, PBLUC_R_SQUARED 0.598, read-out: LUCIFERASE INFECTION ASSAY - IC50”, the IC50 came to 1 µM.
With `CCSc1ccc(-c2cc(NC=O)c3ncc(-c4cccc(C(=O)NCCN(C)C)c4)n3c2)cc1`, the IC90 is greater than 6.77 µM. Besides, the IC50 under setting [1] is greater than 6.77 µM.
As for `O=[N+]([O-])c1cnc(Sc2nnc(-c3ccco3)n2-c2ccc(OCc3ccccc3)cc2)s1`, the IC90 was greater than 6.91 µM. Moreover, the IC50 (FFLUC_HILL_SLOPE 16.1, FFLUC_R_SQUARED 0.469, read-out: LUCIFERASE INFECTION ASSAY - IC50) is greater than 6.91 µM.
Regarding `CCCN(CCC)Cc1c(O)ccc2c1O/C(=C\c1ccc(OCC)cc1)C2=O`, the IC90 was greater than 8.34 µM. Moreover, the IC50 (HEPG2TOX_HILL_SLOPE 7.71, HEPG2TOX_R_SQUARED 0.351, PBLUC_HILL_SLOPE 26.6, PBLUC_R_SQUARED 0.241, read-out: LUCIFERASE INFECTION ASSAY - IC50) was 7.9 µM.
For the molecule `O=C(Nc1nc(CN2CCOCC2)cs1)c1ccccc1Nc1ccccc1`, the IC90 was greater than 10 µM. Under setting [1], the IC50 is greater than 10 µM.
In the case of `Cc1ccc2cccc(Oc3ncnc4scc(-c5ccccc5)c34)c2n1`, the concentration for an effect of 90% (IC90) is greater than 10 µM. Moreover, the IC50 (HEPG2TOX_HILL_SLOPE 0.0481, HEPG2TOX_R_SQUARED 0.388, PBLUC_HILL_SLOPE 1.34, PBLUC_R_SQUARED 0.656, read-out: LUCIFERASE INFECTION ASSAY - IC50) is 5.34 µM.
For the molecule `Cc1cc(C(=O)ONC(=N)c2c(-c3c(Cl)cccc3Cl)noc2C)no1`, the IC90 is greater than 8.35 µM. For the same molecule, where the note is “PBLUC_HILL_SLOPE 25.8, PBLUC_R_SQUARED 0.198, read-out: LUCIFERASE INFECTION ASSAY - IC50”, the IC50 amounted to 8.05 µM.
As for `NNc1nn2c(=O)c3c(-c4ccccc4)csc3nc2c2ccccc12`, the IC90 is greater than 10 µM. Also, the IC50 (FFLUC_HILL_SLOPE 12, FFLUC_R_SQUARED 0.305, PBLUC_HILL_SLOPE 10.1, PBLUC_R_SQUARED 0.389, read-out: LUCIFERASE INFECTION ASSAY - IC50) amounted to 8.61 µM.
As for `Oc1c(Cl)cc(Cl)cc1/C=N/NC(=S)NC1CCCCC1`, the IC90 came out at 9.37 µM. For the same molecule, where the note is “HEPG2TOX_HILL_SLOPE 8.84, HEPG2TOX_R_SQUARED 0.571, PBLUC_HILL_SLOPE 15.3, PBLUC_R_SQUARED 0.312, read-out: LUCIFERASE INFECTION ASSAY - IC50”, the IC50 turned out to be 8.11 µM.
`COc1cccc(Nc2ncc(C(=O)c3cccc(-c4cccnc4)c3)[nH]2)c1`: the IC90 is 0.376 µM. Moreover, the half-maximal inhibitory concentration (IC50) (HEPG2TOX_HILL_SLOPE 1.65, HEPG2TOX_R_SQUARED 0.891, PBLUC_HILL_SLOPE 14.3, PBLUC_R_SQUARED 0.795, read-out: LUCIFERASE INFECTION ASSAY - IC50) stood at 0.322 µM.
Regarding `CCOC(=O)c1c(NC(=O)COC(=O)c2c(C)noc2C)sc(-c2ccccc2)c1C`, the IC90 is greater than 10 µM. Moreover, the IC50 under setting [1] was greater than 10 µM.
Regarding `O=C(NNC(=O)c1ccccc1OCc1cn2ccccc2n1)c1ccc2ccccc2n1`, the IC90 is 1.74 µM. Besides, the IC50 (HEPG2TOX_HILL_SLOPE 1.26, HEPG2TOX_R_SQUARED 0.832, PBLUC_HILL_SLOPE 7.59, PBLUC_R_SQUARED 0.237, read-out: LUCIFERASE INFECTION ASSAY - IC50) stood at 1.31 µM.
With `O=C(N/N=C1/C(=O)c2cccc3cccc1c23)c1ccccc1-n1cccc1`, the IC90 was greater than 10 µM. For the same molecule, the IC50 (PBLUC_HILL_SLOPE 0.275, PBLUC_R_SQUARED 0.0663, read-out: LUCIFERASE INFECTION ASSAY - IC50) is greater than 10 µM.
As to `CCN(CC)S(=O)(=O)c1ccc(N/N=C/c2c(-c3ccccc3)[nH]c3ccccc23)nc1`, the IC90 was greater than 10 µM. The IC50 (PBLUC_HILL_SLOPE 2.64, PBLUC_R_SQUARED 0.392, read-out: LUCIFERASE INFECTION ASSAY - IC50) came out at 4.46 µM.
For the molecule `CSc1c(-c2ccc(Cl)cc2)[nH]c2ccccc12`, the IC90 is greater than 12.1 µM. Besides, the IC50 (PBLUC_HILL_SLOPE 3.51, PBLUC_R_SQUARED 0.189, read-out: LUCIFERASE INFECTION ASSAY - IC50) stood at 11.1 µM.
On to `CC(=O)NC(C)c1ccc(C2=NNC(=Nc3cccc(Cl)c3C)SC2)cc1` (stereo unspecified), for which the IC90 was greater than 10 µM. Besides, the IC50 under setting [1] is greater than 10 µM.
For `O=C(Nc1ccc(S(=O)(=O)NCCCN2CCOCC2)cc1)c1csc(-c2ccsc2)n1`, the IC90 was greater than 10 µM. In addition, the IC50 (PBLUC_HILL_SLOPE 27, PBLUC_R_SQUARED 0.0565, read-out: LUCIFERASE INFECTION ASSAY - IC50) stood at 9.66 µM.
`CCOc1ccc(C(=O)Nc2nc3ccccn3c2C(=O)NC(C)C)cc1`: the IC90 came to 8.41 µM. In addition, the IC50 (HEPG2TOX_HILL_SLOPE 0.179, HEPG2TOX_R_SQUARED 0.152, PBLUC_HILL_SLOPE 1.27, PBLUC_R_SQUARED 0.525, read-out: LUCIFERASE INFECTION ASSAY - IC50) is 1.5 µM.
For `Cc1ccc(NC(=O)COc2ccc(CCO)cc2-n2nc3ccccc3n2)cc1C`, the IC90 was greater than 10 µM. Besides, the IC50 under setting [1] was greater than 10 µM.
As for `CNC(=O)c1ccc(CN(Cc2ccco2)Cc2cccc3cccnc23)cc1`, the IC90 is greater than 10 µM. For the same molecule, the IC50 under setting [1] is greater than 10 µM.
Turning to `Cc1ccc(Cn2nc(C)c3cc(C(=O)N4CCN(c5ncccn5)CC4)sc32)cc1`, the IC90 is greater than 10 µM. The IC50 under setting [1] is greater than 10 µM.
Take `Fc1ccc(-c2csc3ncnc(NCc4ccc(CN5CCOCC5)cc4)c23)cc1`: the IC90 was determined as 7.44 µM. The IC50 (HEPG2TOX_HILL_SLOPE 0.615, HEPG2TOX_R_SQUARED 0.878, PBLUC_HILL_SLOPE 1.43, PBLUC_R_SQUARED 0.575, read-out: LUCIFERASE INFECTION ASSAY - IC50) stood at 1.59 µM.
On to `Clc1ccc(CNc2ncnc3sccc23)cc1`, for which the IC90 is greater than 10 µM. The IC50 under setting [1] worked out at 3.31 µM.
Take `Cc1ccc2c(c1)C1CN(C)CCC1N2C(=O)c1cc2c(s1)CCCC2` (stereo unspecified): the IC90 is greater than 10 µM. For the same molecule, the IC50 (PBLUC_HILL_SLOPE 0.917, 1.13, PBLUC_R_SQUARED 0.241, 0.572, read-out: LUCIFERASE INFECTION ASSAY - IC50) is 2.93 µM.
With `CSc1nnc(-c2ccc(C(C)(C)C)cc2)n1-c1ccc(Cl)cc1`, the IC90 was greater than 9.22 µM. Moreover, the IC50 (PBLUC_HILL_SLOPE 1.19, PBLUC_R_SQUARED 0.789, read-out: LUCIFERASE INFECTION ASSAY - IC50) is greater than 9.22 µM.
As to `CC1CCC(NC(=O)c2ccc(S(=O)(=O)Nc3ccccc3)cc2)CC1` (stereo unspecified), the concentration for an effect of 90% (IC90) was greater than 10 µM. Also, the IC50 under setting [1] is greater than 10 µM.
Regarding `COc1cccc(Cn2nc(C(=O)NC3CC3)c3c2CCN(Cc2cc4c(cc2Cl)OCO4)C3)c1`, the IC90 is greater than 6.67 µM. For the same molecule, where the note is “PBLUC_HILL_SLOPE 2.62, PBLUC_R_SQUARED 0.537, read-out: LUCIFERASE INFECTION ASSAY - IC50”, the IC50 was determined as 3.5 µM.

Values taken from ChEMBL document CHEMBL4483862, “Open-source discovery of chemical leads for next-generation chemoprotective antimalarials” (2018).
